Results published in patent US6121323A, “Bishydroxyureas” (3M Innovative Properties Company, priority 1997, dated 2000).

What was measured:
[1] = molecular target: T1, 5-lipoxygenase (Homo sapiens, UniProt P09917); experiment: 5-Lipoxygenase inhibition in human leukocytes (LTC4 by radioimmunoassay); format: cell-based; settings: A23187 stimulated, LTC4 readout, read-out: IC50 (concentration producing 50% leukotriene biosynthesis inhibition)
T1 construct: endogenous in cells; host or cells: leukocytes from whole human blood (EDTA, dextran sedimentation, hypotonic lysis)
T1 sequence (P09917 1-674): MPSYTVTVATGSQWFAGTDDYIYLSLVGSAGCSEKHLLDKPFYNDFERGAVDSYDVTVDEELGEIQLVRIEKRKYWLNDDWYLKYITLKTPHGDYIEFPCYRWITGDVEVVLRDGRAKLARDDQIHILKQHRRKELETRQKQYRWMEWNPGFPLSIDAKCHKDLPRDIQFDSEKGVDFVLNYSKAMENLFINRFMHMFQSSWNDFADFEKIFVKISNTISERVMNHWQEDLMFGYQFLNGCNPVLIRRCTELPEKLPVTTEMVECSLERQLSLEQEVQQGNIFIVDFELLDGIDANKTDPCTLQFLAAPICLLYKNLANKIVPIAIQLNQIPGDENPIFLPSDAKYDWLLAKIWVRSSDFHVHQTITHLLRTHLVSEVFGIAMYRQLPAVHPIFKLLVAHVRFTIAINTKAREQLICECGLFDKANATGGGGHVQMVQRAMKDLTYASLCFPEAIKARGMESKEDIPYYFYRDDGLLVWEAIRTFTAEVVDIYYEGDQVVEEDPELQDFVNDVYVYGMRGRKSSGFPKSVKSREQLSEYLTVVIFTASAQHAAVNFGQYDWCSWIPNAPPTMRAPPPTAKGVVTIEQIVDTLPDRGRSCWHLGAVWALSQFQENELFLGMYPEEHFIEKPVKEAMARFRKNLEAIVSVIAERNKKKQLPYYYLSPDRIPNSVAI
Protocol: 5-LIPOXYGENASE INHIBITION IN HUMAN LEUKOCYTES
The test method described below measures the ability of compounds of the invention to inhibit 5-lipoxygenase activity in human leukocytes.
Whole human blood is collected by venipuncture into EDTA (1.4 mL of 0.25M per 60 mL of whole blood). The red blood cells are sedimented with a 6% dextran/0.9% sodium chloride solution at a ratio of 25 mL whole blood to 15 mL dextran solution. The blood/dextran combination is mixed by inversion and the red blood cells are allowed to settle out for 45 minutes at ambient temperature. The plasma/dextran supernatant is removed then centrifuged at ambient temperature at 3000 rpm for 10 minutes. The plasma/dextran supernatant is removed and the cells are resuspended in 10 mL of the plasma/dextran solution. The cell suspension is combined with 20 mL of water, mixed for 1.5 minutes then immediately combined with 10 mL of 3.6% sodium chloride, mixed and centrifuged at ambient temperature at 3000 rpm for 10 minutes. The pellet is washed with 40 mL of Tris buffer (5.55 mM dextrose, 15.36 mM Tris base, 136.9 mM sodium chloride with pH 7.3-7.4) then centrifuged at 3000 rpm for 10 minutes. The pellet is then resuspended into Tris buffer containing 1 mM calcium chloride to provide approximately 1.0×10^7 cells/mL.
Compounds are dissolved in dimethyl sulfoxide. Compounds are tested at concentrations of 100, 33, 11, 3.7, 1.2 and 0.41 μM. Each concentration is tested in duplicate.
A 15 μL portion of Tris buffer containing 1 mM calcium chloride is added to each well of a 96 well microtiter plate. A 1 μL portion of drug solution or vehicle (dimethyl sulfoxide) is added to each well followed by the addition of a 75 μL portion of the cell suspension. The plates are gently mixed then allowed to stand at ambient temperature for 10 minutes. A 10 μL portion of 30 μM A23187 Calcium Ionophore (prepared by dissolving the ionophore in DMSO and then diluting 1:80 into the Tris buffer) is added to each well except the wells that contain the blanks. The blank wells measure the level of LTC4 production in the absence of A23187. The plates are gently mixed then incubated at 37° C. for 10 minutes.
Following incubation the plates are centrifuged at 2000 rpm for 1.5 minutes and the supernatant is removed as quickly as possible to stop the reaction. The supernatants are frozen at -20° C. until they are assayed.
The supernatants are assayed for the presence of Leukotriene C4 by radioimmunoassay which is performed according to the manufacturer's instructions (Advanced Magnetics; Cambridge, Mass.). Inhibition of leukotriene biosynthesis is calculated as the ratio of the amount of LTC4 formed in the presence (LTC4 +cpd) and absence (LTC4 no cpd) of compound according to the following equation. [formula] IC50 values (concentrations of compound producing 50% leukotriene biosynthesis inhibition) are calculated by linear regression analysis of percentage inhibition versus log compound concentration plots.

[2] = test system: Leukotriene B4 production in whole human blood; experiment: In vitro human whole blood Leukotriene B4 inhibition; format: cell-based; settings: A23187 stimulated, read-out: IC50 (concentration producing 50% inhibition of LTB4 production)
Protocol: IN VITRO HUMAN WHOLE BLOOD LEUKOTRIENE B4 INHIBITION
The test method described below measures the ability of compounds to inhibit the production of Leukotriene B4 in whole human blood.
Whole human blood is collected by venipuncture into a 60 cc syringe containing 100 units of heparin.
compounds are disolved in dimethyl sulfoxide. Compounds are tested at concentrations of 100, 33, 11, 3.7, 1.2 and 0.41 μM. Each concentration is tested in duplicate.
Aliquots (1 μL) of compound solution are added to 1 mL polyethylene tubes followed by the addition of 500 μL portion of heparinized blood. The tubes are mixed thoroughly then allowed to preincubate at ambient temperature for 15 minutes. A 25 μL portion of 1 mM Calcium Ionophore A23187 in dimethyl sulfoxide/Tris buffer is added to the tubes. The tubes are mixed thoroughly then incubated at 37° C. for 30 minutes.
The tubes are centrifuged at 2000 rpm for 10 minutes. 100 μL portions of plasma are transferred to 1 mL polyethylene tubes containing 400 μL portions of methanol. The tubes are vortexed then frozen at -20° C. overnight.
The tubes are centrifuged for 10 minutes then 100 μL portions of methanol supernatant are transferred to a 96 well microtiter plate. 10 μL portions are transferred from this plate to a 96 well assay plate. Methanol dilutions of LTB4 standard curve are added to the assay plate. 10 μL portions of blank methanol/plasma supernatant are added to each standard curve well. The assay plate is vacuum dried at ambient temperature. The radioimmunoassay buffer is added, the plate is bath-sonicated for 5 minutes then assayed according to the manufacturer's instructions (Advanced Magnetics; Cambridge, Mass.). Inhibition of LTB4 production is calculated as the ratio of the amount of LTB4 formed in the presence (LTB4 +cpd) and absence (LTB4 no cpd) of compound according the equation below. [formula] IC50 values (concentration of compound producing a 50% inhibition of LTB4 production) are calculated by linear regression analysis of percentage inhibition versus log compound concentration plots.

SMILES	IC50 [1]	IC50 [2]
CCc1cc(Cc2cc(CC)c(NC(=O)N(C)O)c(CC)c2)cc(CC)c1NC(=O)N(C)O [Example 4, 4,4'-Methylenebis(1-hydroxy-1-methyl-3-(2,6-diethylphenyl)urea)]	4220 nM	8200 nM
CN(O)C(=O)Nc1ccc(C(c2ccc(NC(=O)N(C)O)cc2)(C(F)(F)F)C(F)(F)F)cc1 [Example 5, 4,4'-(2,2-Hexafluoropropane)bis(1-hydroxy-1-methyl-3-phenylurea)]	24 nM	700 nM
CN(O)C(=O)Nc1ccc(Oc2ccc(NC(=O)N(C)O)cc2)cc1 [Example 6, 4,4'-Oxybis(1-hydroxy-1-methyl-3-phenylurea)]	216 nM	500 nM
CN(O)C(=O)N[C@H]1CC[C@H](NC(=O)N(C)O)CC1 [Example 9, trans-1,4-Cyclohexanebis(3-hydroxy-3-methylurea)]	> 10000 nM	17200 nM
O=C(NCCCCCCNC(=O)N(O)Cc1ccccc1)N(O)Cc1ccccc1 [Example 10, 1,1'-Hexamethylenebis(3-hydroxy-3-benzylurea)]	100 nM	2000 nM

Continued, values first:

IC50 [1]	IC50 [2]	SMILES
5900 nM	550 nM	CN(O)C(=O)Nc1cccc(NC(=O)N(C)O)c1 [Example 7, 1,1'-(m-Phenylene)bis(3-hydroxy-3-methylurea)]
5600 nM	700 nM	CN(O)C(=O)Nc1cccc2c(NC(=O)N(C)O)cccc12 [Example 8, 1,1'-(1,5-Naphthalene)bis(3-hydroxy-3-methylurea)]
100 nM	350 nM	COc1cc(-c2ccc(NC(=O)N(C)O)c(OC)c2)ccc1NC(=O)N(C)O [Example 11]
